This is an account of results in patent US9487818B2, “TOP2A inhibition by temozolomide and its predictive value of GBM patients survival” (COUNCIL OF SCIENTIFIC & INDUSTRIAL RESEARCH, priority 2010, dated 2016).

The test system of assay [1] is U251 glioma cells. Briefly: Cell viability (MTT) assay in U251 cells transfected with TOP2A or cyclophilin siRNA. Conditions: MTT assay after 48 hrs. In kind it is cell-based. How it is done:
At test for difference in the % viability of the control and TOP2A siRNA treated cells was estimated and the p values are shown: 2, 4, 8 and 16 μg/mL; p=0.0297, 0.0336, <0.0001 and 0.042 respectively.
The experiment was carried out as in “D” but the cells were treated with temozolomide. At test for difference in the % viability of the control and TOP2A siRNA treated cells was estimated and the p values are shown: 250, 500, 1000 and 2000 μM; p=0.0668, 0.0097, 0.0687 and 0.0134 respectively.
U373, U138, LN18, LN229, U343, U87, K562, U251 and SVG cells were cultured in DMEM respectively with 10% Fetal bovine serum, penicillin and streptomycin at 37° C. in a humidified atmosphere with 5% CO2. The human TOP2A and cyclophilin siRNA duplexes were designed and chemically synthesized by Dharmacon Research (Lafayette, Colo.). The SMARTpool siRNA is a mixture of four different siRNA duplexes targeting distinct coding region sequences of TOP2A (Genbank™ accession number NM_001067). […]
For chemosensitivity assays, 24 hours after plating, the cells were treated with the cytotoxic drugs and incubated at 37° C., 5% CO2 for 45 hours. […] Three hours after MTT addition, the formazan crystals were dissolved in DMSO (200 μl) and measured as absorbance at 550 nm. The absorbance by the control cells was considered to be 100% and all samples were normalized to the control cells. […]
On the technique in general: Tetrazolium assays rely on reduction of a dye to a coloured formazan, in cell work by metabolically active cells.

The subject of assay [2] is GBM patients. The assay can be described thus: Prospective cohort of GBM patients, survival (Kaplan Meier analysis). The class given is in vivo, human. Conditions: for median survival: radiotherapy with temozolomide. On the procedure:
Kaplan-Meier survival estimates for 102 GBM patients are calculated for TOP2A transcript levels. Survival curves for the groups positive (log 2 ratio≧9.25; n=34) and negative (log 2 ratio<9.25; n=68) for TOP2A in univariate analysis.
Newly diagnosed glioblastoma patients (n=102) who underwent surgery in the two clinical centers (NIMHANS/SSIHMS) were prospectively included. Approval by the ethics committee and patient consent were obtained prior to initiation of the study. The patients were recruited based on the following inclusion criteria: 1) Adult patients (age between 18 to 65 years) with a supratentorial lobar tumor 2) Patients who underwent maximal safe resection of the tumor with minimal residue noted on post operative MRI scan 3) Patients with post operative Karnofsky's Performance Score (KPS)≧70.
All patients underwent maximal safe resection of the tumor. All patients underwent uniform adjuvant therapy consisting of radiotherapy, administered with a total dose of 59.4 Gy, given in 33 fractions, along with concomitant chemotherapy with temozolamide, administered at the dose of 100 mg/day which was continued daily for 45 days. Subsequently, five cycles of cyclical chemotherapy with temozolamide at the dose of 150 mg/sq. m body surface area for 5 days every 28 days was administered. The patients were followed up clinically and with MR imaging. The maximum follow up period was 34 months.
A cohort of 102 patients of GBM were prospectively recruited and managed by standard treatment protocol (as explained in methods). […] In this cohort, as expected, age was an important predictor of poor outcome as noted by Cox regression analysis (p=0.037; HR=1.023; B=0.022). […] The effect of TOP2A transcript level and age on survival was further evaluated by Cox proportional hazard model to elicit the independent effect of TOP2A on survival. It was noted that both age (p=0.033; HR=1.023; B=0.023) and TOP2A transcript level (p=0.035; HR=0.888; B=−0.119) were significant predictors by multivariate analysis. […]

Take `COc1cc([C@@H]2c3cc4c(cc3[C@@H](O[C@@H]3O[C@@H]5CO[C@@H](C)O[C@H]5[C@H](O)[C@H]3O)[C@H]3COC(=O)[C@H]23)OCO4)cc(OC)c1O` [etoposide]: the “sensitivity of TOP2A siRNA transfected cells in comparison to cyclophilin siRNA transfected cells” value in assay [1] is listed as “less efficiently”.
Take `Cn1nnc2c(C(N)=O)ncn2c1=O` [temozolomide]: in assay [2] (102 GBM patients, resection, radiotherapy with concomitant and cyclical adjuvant temozolomide), the median overall survival is given as 16 months. The figures for the median survival in assay [2] (patients with TOP2A mRNA levels <9.25 log 2 ratio) and in assay [2] (patients with TOP2A mRNA levels ≧9.25 log 2 ratio) were 13 months and 22 months, respectively.
